Source: publication PMC11406516, “The Tuberculosis Drug Candidate SQ109 and Its Analogs Have Multistage Activity against Plasmodium falciparum” (ACS Infectious Diseases, 2024)
In brackets after ≈: the same amount, converted by molar mass. Like-named read-outs stand apart in the source and are kept apart here. Marks after values point to notes of the source that are not given here.

Assays:
HepG2 cells [1] = system: HepG2 cells
Procedure: (§1) Furthermore, compounds were evaluated against late (stage IV/V) gametocytes from PfNF54 (PfNF54 LGc), with viability detected with PrestoBlue,[15] and orthogonally evaluated for toxicity against a human hepatocellular carcinoma line, HepG2.[16]
(§2) Human hepatocellular liver carcinoma cells (HepG2) were cultivated in vitro in Dulbecco’s Modified Eagle’s Medium (DMEM) supplemented with 10% (v/v) heat inactivated fetal bovine serum and 1% (v/v) penicillin/streptomycin.[14] Cells were detached with trypsin treatment at 80% confluency and were seeded in 96-well plates to adhere for 24 h under 5% CO2, humid (95%) conditions. Cells were subsequently exposed to drug pressure for 24 h and cytotoxicity was then determined using the lactate dehydrogenase (LDH) release assay through the colorimetric detection at 450 nm, as previously outlined.[4],[16]

PfNF54 ABS [2] = assay: SYBR Green I proliferation assay, asexual blood stages, drug-sensitive NF54; conditions: for IC50: Plasmodium falciparum, NF54, 96 h, read-out: Pf ABS IC50 NF54
Procedure: (§3) P. falciparum asexual parasites were cultured from drug-sensitive NF54 (PfNF54) and multidrug resistant strains PfK1. Parasites were maintained in human erythrocytes (O+, suspended at 5% hematocrit) in RPMI-1640 culture medium (23.81 mM sodium bicarbonate, 0.024 mg/mL gentamycin, 25 mM HEPES pH 7.5, 0.2% D-glucose, 0.2 mM hypoxanthine and Albumax II) under hypoxic conditions (5% CO2, 5% O2 and 90% N2) with moderate shaking (60 rpm) at 37 °C. Cultures were synchronized to >95% in the ring stage with 5% (w/v) D-sorbitol treatment.[28]
(§4) Activity against the asexual stage of P. falciparum was evaluated using the SYBR Green I-based fluorescence assay as previously described.[4],[16] Cellular proliferation was measured on synchronized in vitro PfNF54 ring-stage parasites (1% parasitemia, 2% hematocrit), following drug pressure for 96 h. Chloroquine was used as the positive drug control for complete inhibition of parasite proliferation.

[3] = system: PfNF54 LGc (stage IV/V gametocytes); assay: PrestoBlue late-stage gametocyte viability assay; assay type: cell-based, Plasmodium falciparum; conditions: for IC50: Plasmodium falciparum, stage IV/V gametocytes, 48 h drug pressure, read-out: PfNF54 LGc IC50
Procedure: Gametocytogenesis was induced on highly synchronized (>95%) asexual ring-stage parasites from PfNF54 at 0.5% parasitemia and 6% hematocrit and thereafter maintained in glucose-deprived media as previously described.[29],[15] After 3 days, the hematocrit was decreased to 4%. Parasites were maintained in complete culture media supplemented with 50 mM N-acetyl-glucosamine 5–10 days post induction to inhibit proliferation of residual asexual blood stages. Gametocyte progression and morphology was also monitored microscopically using Giemsa-stained thin smears.
activity against the sexual stages of P. falciparum was evaluated using the PrestoBlue fluorescence assay as previously described.[4] Activity was measured on PfNF54 stage IV/V gametocytes (2% gametocytemia, 5% hematocrit) previously seeded with compounds (in non-lethal DMSO) for 48 h drug pressure, after which PrestoBlue reagent was added and incubated for 2 h. Fluorescence was detected in the supernatant at 612 nm. Dihydroartemisinin (DHA) was used as a positive drug control.

HepG2 cells [4] = assay: HepG2 cytotoxicity, LDH release assay; conditions: Homo sapiens, HepG2, 24 h, read-out: HepG2 EC50
Procedure: as §1, §2

PfK1 = assay: SYBR Green I proliferation assay, asexual blood stages, multidrug-resistant K1; conditions: for IC50: Plasmodium falciparum, K1, read-out: Pf ABS IC50 K1; for fold higher IC50 against PfK1: PfK1 vs NF54
Procedure: as §3, §4

PfNF54 ABS [5] = system: PfNF54 ABS; set-up: method as in Stampolaki et al.[5]; conditions: drug-sensitive NF54; ref Stampolaki et al.[5]; read-out: Pf ABS IC50 NF54; cited from earlier work
female gametes = assay: Female gamete inhibition assay; assay type: cell-based, Plasmodium falciparum; set-up: concentration or dose not given beside the values
Procedure: Similarly, female gametes were activated as described previously.[31] Monoclonal anti-Pfs antibody conjugated to FITC was used to detect female gametes. Image acquisition was performed using a Zeiss Axio Lab.A1 epifluorescence microscope with a 100/1.4 numerical aperture (NA) oil immersion. Thirty images were captured per sample and analyzed manually.

physchem = assay type: physicochemical; conditions: 37 °C, pH 6.5, aqueous buffer, thermodynamic from solid
Procedure: The stock solutions (10^–2 M) of the assayed compounds were diluted to decreased molarity, from 300 to 0.1 μM, in 384 well transparent plate (Greiner 781801) with 1% DMSO:99% PBS buffer. Then, they were incubated at 37 °C and the light scattering was measured after 2 h in a NEPHELOstar Plus (BMG LABTECH). The results were adjusted to a segmented regression to obtain the maximum concentration in which compounds are soluble.
The solubility of each product was evaluated using an HPLC Agilent 1100 with a DAD detector. The samples were injected in an Agilent Poroshell 120 EC-C18, 2.7 μm, 50 mm × 4.6 mm column at 40 °C and 0.6 mL/min flow. The mobile phase was a mixture of A = water with 0.05% formic acid and B = acetonitrile with 0.05% formic acid. The procedure followed was from 95% A–5% B to 100% B in 3 min, 100% B in 3 min, from 100% B to 95% A–5% B in 1 min, 95% A–5% B in 3 min; the injection volume was set at 75 μL. […] The samples remained at these conditions between 12–24 h. Then, the samples were filtered through a 0.45 μm PVDF filter and either directly analyzed or diluted before analyzing. The obtained area under the curve was compared with the one from the standard solution.

male gametes (PfNF54) = assay: Male gamete exflagellation inhibition assay (EIA); assay type: cell-based; conditions: Plasmodium falciparum; 2 μM, 48 h; read-out: male gamete inhibition %
Procedure: The EIA was performed using video microscopy by capturing the movement of exflagellation centers over time as previously described.[4],[30] Mature PfNF54 stage V gametocytes (>95%;) were treated with 2 μM of drug for 48 h before the activation of exflagellation, without removing drug pressure. Movement was semi-automatically quantified from 15 videos of 8–10 s each between 15 and 22.5 min after incubation. Each video was analyzed using ICY-bio image analysis software.

oocyst formation = assay: Standard membrane feeding assay (SMFA), oocyst formation in Anopheles coluzzii; assay type: in vivo; conditions: Plasmodium falciparum, 48 h drug treatment at 2 μM, single biological repeat
Procedure: Transmission-blocking activity was confirmed in the standard membrane feeding assay (SMFA), by determining transmission-reducing activity (TRA; reduction in oocyst counts) and transmission-blocking activity (TBA, reduction in oocyst prevalence), 8–10 days after feeding female mosquitoes on gametocyte-infected blood, treated with selected compounds (at 2 μM).
SMFA was performed using glass feeders as is outlined.[4],[16] Once again, mature stage V gametocytes (>95%) were treated with 2 μM of each compound for 48 h prior to feeding. Anopheles coluzzii females were allowed to feed on gametocyte cultures (1.5–2.5% gametocytemia, 50% hematocrit in A+ male serum with fresh erythrocytes) in the dark for 40 min. All unfed or partially fed mosquitoes were removed, and remaining females housed for 8–10 days. Mosquitoes were dissected to remove midguts, and oocysts counted under bright field illumination at ×20–×40 magnification. The percentage of block in transmission (transmission-blocking activity; TBA) and the percentage of reduction in the number of oocysts (transmission-reducing activity; TRA) were calculated after normalizing to the control untreated sample.

HepG2 cells [6] = system: HepG2 cells; set-up: method as in Stampolaki et al.[5]; conditions: compound at 20 μM; ref Stampolaki et al.[5]; cited from earlier work
PfDd2 parasites = assay: Asexual blood stage activity, chloroquine-resistant Dd2; assay type: cell-based; conditions: Plasmodium falciparum, DD2, read-out: Pf ABS IC50 (Dd2)
Source text: This strain is highly resistant to chloroquine and other antimalarials and is associated with increased export of e.g., chloroquine from the digestive vacuole.[23] This phenotype was also replicated in PfDd2 parasites, also resistant to chloroquine (among other antimalarials), with 4 and 5 losing activity but 1 similarly active (Table 1). These aromatic compounds may therefore be subject to resistance mechanisms similar to those found with chloroquine.

[7] = system: African field isolate SB05; assay: Ex vivo activity on clinical isolate SB05; assay type: cell-based, Plasmodium falciparum; conditions: Plasmodium falciparum, read-out: IC50 SB05
Source text: Since SB03/05 are both multiclonal,[27] this warrants further investigation into the activity of this series toward clinical gametocytes.
(A) Dose–response analysis of SQ109 on clinical isolates SB03 and SB05 in comparison to lab-adapted NF54 P. falciparum parasites. Data are from at least 2 independent biological repeats, mean ± SE indicated, * P < 0.05 is indicated. (B) IC50 for SQ109 analogs 13 and 19 against a contemporary African field isolate SB05. […] TEXT PRINTED IN THE PICTURE: (A) SQ109/1: IC50 (μM), NF54: 1.58 ± 0.20; IC50 (μM), SB03: 0.63 ± 0.01; IC50 (μM), SB05: 0.90 DOUBTS OF THE COPYIST ABOUT THIS PICTURE: Panel A: the three IC50 values are matched to NF54, SB03 and SB05 only by line style (black dashed, grey solid, grey dashed), not by a printed label beside the numbers.

in vitro = in vitro ADME; conditions: microsomes
Procedure: The microsomal stability assay used a single-point assay design (Di et al., 2004). Briefly, the compounds were incubated at 1 μM in human, rat, and mouse liver microsomes (0.4 mg/mL) for 30 min at 37 °C. Reactions were quenched by adding ice-cold acetonitrile containing internal standard (carbamazepine, 0.0236 μg/mL). The samples were then centrifuged, and the samples were analyzed by liquid chromatography with tandem mass spectrometry (LC-MS/MS) (Agilent Rapid Resolution HPLC, AB SCIEX 4500 MS) for the disappearance of the parent compound. Half-life, clearance and hepatic […] ratios were determined using standard equations.

[8] = HepG2 cytotoxicity, LDH release assay; conditions: human, HepG2 cells
Procedure: as §1, §2

[9] = read-out: oocyst formation (% inhibition) TBA
[10] = read-out: oocyst formation (% inhibition) TRA

| SMILES | cytotoxicity to HepG2 cells (in words) (HepG2 cells [1]) | IC50 (PfNF54 ABS [2]) [nM] | IC50 [3] [nM] | EC50 (HepG2 cells [4]) [nM] | IC50 (PfK1) [nM] | IC50 (PfNF54 ABS [5]) [nM] | female gamete inhibition % (female gametes) [%] | solubility (physchem) [µM] | inhibition at 2 µM (male gametes (PfNF54)) [%] | inhibition at 2 µM (oocyst formation; [9]) [%] | HepG2 % viability (HepG2 cells [6]) [%^c] | inhibition at 2 µM (oocyst formation; [10]) [%] | further results |
| --- | --- | --- | --- | --- | --- | --- | --- | --- | --- | --- | --- | --- | --- |
| c1ccc(Oc2cccc(CNCCNC3C4CC5CC(C4)CC3C5)c2)cc1 (stereo not shown) [Compound 23] | moderately cytotoxic | 960 ± 10 | 1510 ± 420 | 20000 ± 5690 | 4140 ± 1370 | – | – | – | – | – | – | – | – |
| CC(C)=CCC/C(C)=C/CNCCNC1(Cc2ccccc2)C2CC3CC(C2)CC1C3 (stereo not shown) [Compound 4] | – | – | 160 ± 20 | – | > 5000 | 320 ± 30 | 74.48 ± 2.26 | 13.9 (≈ 5.85 µg/mL) | 43.9 ± 10.6 | 26 | 100 | – | fold higher IC50 against PfK1 (PfK1): 16 ×; IC50 (PfDd2 parasites): 8110 nM |
| CC(C)CCCC(C)CCNCCNC1C2CC3CC(C2)CC1C3 (stereo not shown) [Compound 19] | moderately cytotoxic | 200 | 300 ± 30 | 3500 ± 90 | 110 ± 10 | – | 86.30 ± 2.58 | – | 95.5 ± 4.55 | 36 | – | 47 | IC50 [7]: 950 ± 310 nM |
| CC(C)=CCC/C(C)=C/CNCCNC1(c2ccccc2)C2CC3CC(C2)CC1C3 (stereo not shown) [Compound 5] | – | – | 210 ± 20 | – | 5990 ± 630 | 420 ± 90 | 61.03 ± 14.35 | 30 (≈ 12.2 µg/mL) | 48 ± 24.8 | 63 | 100 | 38 | microsomal CLint at 1 µM (in vitro; human): 400 µL/min/mg; microsomal CLint at 1 µM (in vitro; mouse): 343 µL/min/mg; microsomal CLint at 1 µM (in vitro; rat): 514 µL/min/mg; fold higher IC50 against PfK1 (PfK1): 14 ×; IC50 (PfDd2 parasites): 5660 nM |
| CC(C)CCCC(C)CCCC(C)CCNCCNC1C2CC3CC(C2)CC1C3 (stereo not shown) [Compound 20] | moderately cytotoxic | 390 ± 150 | 540 ± 40 | 5110 ± 850 | 390 ± 10 | – | 77.52 ± 10.85 | – | 95 ± 5 | 54 | – | 75 | – |
| CC(C)=CCC/C(C)=C/CNCCNC(C)(C)C1C2CC3CC(C2)CC1C3 (stereo not shown) [Compound 8] | – | – | 290 ± 10 | – | 1610 ± 550 | 770 ± 100 | 54.00 ± 2.54 | 2340 (≈ 872 µg/mL) | 23.5 ± 9.72 | – | 100 | – | microsomal CLint at 1 µM (in vitro; human): 426 µL/min/mg; microsomal CLint at 1 µM (in vitro; mouse): 218 µL/min/mg; microsomal CLint at 1 µM (in vitro; rat): 467 µL/min/mg |
| c1ccc(CCNCCNC2C3CC4CC(C3)CC2C4)cc1 (stereo not shown) [Compound 22] | moderately cytotoxic | 730 ± 40 | 740 ± 150 | – | 1700 ± 210 | – | 85.40 ± 7.62 | – | 92.1 ± 1.21 | 80 | – | 89 | fold loss in gametocyte activity ([3]; LGc, compared to 1): 7 fold; viability at 24 h, 20 µM [8]: 100% |
| CC(C)=CCC/C(C)=C/CNCCCNC1C2CC3CC(C2)CC1C3 (stereo not shown) [Compound 13] | – | 980 ± 80 | 120 ± 30 | 11800 ± 830 | 1050 ± 90 | – | 87.02 ± 3.68 | – | 90.9 ± 9.09 | 64 | – | 70 | fold improvement in ABS activity compared to 1 (PfNF54 ABS [2]; PfNF54 ABS): 1.6 fold; IC50 [7]: 490 ± 90 nM; fold improvement in gametocyte activity compared to 1 ([3]; PfNF54 LGc): 1.2 fold |
